Laboratory results as given in patent US4468403A, “Analgesic substituted piperidylidene-2-sulfon(cyan)amide derivatives” (priority 1982, dated 1984).
Where two headings read alike, the source gives them in different places.

Assay type: in vivo, male Swiss albino mice
Settings: for Analgesic (agonist) activity, in words: phenylquinone writhing, mice; for Analgesic action, inhibition action on phenylquinone writhing, % inhibition / Analgesic action, inhibition action on phenylquinone writhing: dose giving 50 % inhibition: subcutaneous; for Analgesic action, inhibition action on phenylquinone writhing: dose giving 50 % inhibition: 30 min before phenyl-p-benzoquinone, dose with 50 % inhibition; for % Inhibn, control (single agent) in antagonist study: alone
Protocol: The percent change is calculated according to the following equation: % change=100- (no. of writhes in treated group/no. of writhes in control group)×100.

[1] = at the dose listed for the substance under E1

Question: For `O=S(=O)(N=C1CCCCN1CCc1ccccc1)c1cccnc1` [Compound W-17, 1-Phenylethylpiperidylidene-2-(3-pyridyl)sulfonamide], which “Analgesic (agonist) activity, in words” value is on record?
Answer: active analgesics, being comparable to morphine sulfate

Question: What about the “Analgesic action, inhibition action on phenylquinone writhing, % inhibition” value (dose 0.20 mg/kg) of the same compound?
Answer: 65%

Question: What does the source list for `CN1CCCC(Br)C1=NC#N` (racemic) [Compound 0-1, 3-Bromo-1-methylpiperidylidene-2-cyanamide]?
Answer: Analgesic action, inhibition action on phenylquinone writhing: dose giving 50 % inhibition: 0.7 mg/kg; Analgesic action, inhibition action on phenylquinone writhing, % inhibition [1]: 50%

Question: For `CC(C)CN1CCCCC1=NS(=O)(=O)c1cccnc1` [Compound W-31, 1-Isobutylpiperidylidene-2-(3-pyridyl)sulfonamide], which “Analgesic action, inhibition action on phenylquinone writhing, % inhibition” value (dose 2.0 mg/kg (Table 3)) is on record?
Answer: 65%

Question: For `O=[N+]([O-])c1ccc(CCN2CCCCC2=NS(=O)(=O)c2ccc(Cl)cc2)cc1` [Compound W-18, 1-(4-Nitrophenylethyl)piperidylidene-2-(4-chlorophenyl)sulfonamide], which “Analgesic action, inhibition action on phenylquinone writhing, % inhibition” value [1] is on record?
Answer: 50%

Question: For `CCCN1CCCCC1=NS(=O)(=O)c1ccc(N)cc1` [Compound W-27, 1-n-Propylpiperidylidene-2-(4-aminophenyl)sulfonamide], which “Analgesic action, inhibition action on phenylquinone writhing, % inhibition” value (dose 2.0 mg/kg (Table 3)) is on record?
Answer: 59%

Question: With `O=S(=O)(N=C1CCCCN1CCc1ccccc1)c1ccc(Cl)cc1` [Compound W-15, 1-Phenylethylpiperidylidene-2-(4-chlorophenyl)sulfonamide] as the compound, how does the “Analgesic (agonist) activity, in words” value read?
Answer: active analgesics, being comparable to morphine sulfate

Question: And the “Analgesic action, inhibition action on phenylquinone writhing: dose giving 50 % inhibition” value (shortened to “Analgesic action … dose giving 50 % inhibition”)?
Answer: 0.007 mg/kg

Question: And the “Analgesic action, inhibition action on phenylquinone writhing, % inhibition” value [1]?
Answer: 50%

Question: With `CCCN1CCCCC1=NS(=O)(=O)c1cccnc1` [Compound W-28, 1-n-Propylpiperidylidene-2-(3-pyridyl)sulfonamide] as the compound, how does the “Analgesic action, inhibition action on phenylquinone writhing, % inhibition” value (dose 2.0 mg/kg (Table 3)) read?
Answer: 82%

Question: For `Nc1ccc(S(=O)(=O)N=C2CCCCN2CCc2ccccc2)cc1` [Compound W-16, 1-Phenylethylpiperidylidene-2-(4-aminophenyl)sulfonamide], which “Analgesic (agonist) activity, in words” value is on record?
Answer: active analgesics, being comparable to morphine sulfate

Question: And the “Analgesic action, inhibition action on phenylquinone writhing, % inhibition” value (dose 0.20 mg/kg)?
Answer: 56%

Question: For `CC(=O)Nc1ccc(S(=O)(=O)N=C2CCCCN2C)cc1` [Compound W-12, 1-Methylpiperidylidene-2-(4-acetamidophenyl)sulfonamide], which “Analgesic action … dose giving 50 % inhibition” value is on record?
Answer: 1.2 mg/kg

Question: And the “Analgesic action, inhibition action on phenylquinone writhing, % inhibition” value [1]?
Answer: 50%

Question: Which “Analgesic action … dose giving 50 % inhibition” value does the source give for `CCCN1CCCCC1=NS(=O)(=O)c1ccc(Cl)cc1` [Compound W-26, 1-n-Propylpiperidylidene-2-(4-chlorophenyl)sulfonamide] here?
Answer: 1.4 mg/kg

Question: And the “Analgesic action, inhibition action on phenylquinone writhing, % inhibition” value [1]?
Answer: 50%

Question: For `CN1CCCCC1=NS(=O)(=O)c1ccccc1N` [Compound W-11, 1-Methylpiperidylidene-2-(2-aminophenyl)sulfonamide], which “Analgesic (agonist) activity, in words” value is on record?
Answer: active analgesics, being comparable to morphine sulfate

Question: What about the “Analgesic action … dose giving 50 % inhibition” value of the same compound?
Answer: 0.00024 mg/kg

Question: What about the “Analgesic action, inhibition action on phenylquinone writhing, % inhibition” value [1] of the same compound?
Answer: 50%

Question: With `Nc1ccc(S(=O)(=O)N=C2CCCCN2CC2CCC2)cc1` [Compound W-24, 1-Cyclobutylmethylpiperidylidene-2-(4-aminophenyl)sulfonamide] as the compound, how does the “Analgesic action, inhibition action on phenylquinone writhing, % inhibition” value (dose 0.20 mg/kg) read?
Answer: 61%

Question: With `CN1CCCCC1=NS(=O)(=O)c1ccc(N)cc1` [Compound W-9, 1-Methylpiperidylidene-2-(4-aminophenyl)sulfonamide] as the compound, how does the “Analgesic (agonist) activity, in words” value read?
Answer: active analgesics, being comparable to morphine sulfate

Question: And the “Analgesic action … dose giving 50 % inhibition” value?
Answer: 0.007 mg/kg

Question: And the “Analgesic action, inhibition action on phenylquinone writhing, % inhibition” value [1]?
Answer: 50%

Question: For `CN1CCCCC1=NS(=O)(=O)c1cccc(N)c1` [Compound W-10, 1-Methylpiperidylidene-2-(3-aminophenyl)sulfonamide], which “Analgesic (agonist) activity, in words” value is on record?
Answer: active analgesics, being comparable to morphine sulfate

Question: What about the “Analgesic action … dose giving 50 % inhibition” value of the same compound?
Answer: 0.0017 mg/kg

Question: What about the “Analgesic action, inhibition action on phenylquinone writhing, % inhibition” value [1] of the same compound?
Answer: 50%

Question: Which “Analgesic (agonist) activity, in words” value does the source give for `CN1CCCCC1=NS(=O)(=O)c1ccccc1[N+](=O)[O-]` [Compound W-8, 1-Methylpiperidylidene-2-(2-nitrophenyl)sulfonamide] here?
Answer: active analgesics, being comparable to morphine sulfate

Question: What about the “Analgesic action … dose giving 50 % inhibition” value of the same compound?
Answer: 0.0018 mg/kg

Question: What about the “Analgesic action, inhibition action on phenylquinone writhing, % inhibition” value [1] of the same compound?
Answer: 50%

Question: Which “Analgesic action … dose giving 50 % inhibition” value does the source give for `CCC(=O)O[C@](Cc1ccccc1)(c1ccccc1)[C@H](C)CN(C)C` [Dextropropoxyphene (TM), reference compound] here?
Answer: 56.0 mg/kg

Question: What about the “Analgesic action, inhibition action on phenylquinone writhing, % inhibition” value [1] of the same compound?
Answer: 50%

Question: For `CC(C)CN1CCCCC1=NS(=O)(=O)c1ccc(Cl)cc1` [Compound W-29, 1-Isobutylpiperidylidene-2-(4-chlorophenyl)sulfonamide], which “Analgesic action … dose giving 50 % inhibition” value is on record?
Answer: 2.0 mg/kg

Question: What about the “Analgesic action, inhibition action on phenylquinone writhing, % inhibition” value (dose 2.0 mg/kg (Table 3)) of the same compound?
Answer: 50%

Question: For `O=S(=O)(N=C1CCCCN1CC1CC1)c1cccnc1` [Compound W-22, 1-Cyclopropylmethylpiperidylidene-2-(3-pyridyl)sulfonamide], which “Analgesic action … dose giving 50 % inhibition” value is on record?
Answer: 2.0 mg/kg

Question: And the “Analgesic action, inhibition action on phenylquinone writhing, % inhibition” value (dose 2.0 mg/kg (Table 3))?
Answer: 50%

Question: Which “Analgesic action, inhibition action on phenylquinone writhing, % inhibition” value (dose 2.0 mg/kg (Table 3)) does the source give for `CC(C)CN1CCCCC1=NS(=O)(=O)c1ccc(N)cc1` [Compound W-30, 1-Isobutylpiperidylidene-2-(4-aminophenyl)sulfonamide] here?
Answer: 59%

Question: What does the source list for `COc1ccc(S(=O)(=O)N=C2CCCCN2C)cc1` [Compound W-4, 1-Methylpiperidylidene-2-(4-methoxyphenyl)sulfonamide]?
Answer: Analgesic (agonist) activity, in words: active analgesics, being comparable to morphine sulfate; Analgesic action, inhibition action on phenylquinone writhing: dose giving 50 % inhibition: 0.002 mg/kg; Analgesic action, inhibition action on phenylquinone writhing, % inhibition [1]: 50%

Question: Which “Analgesic (agonist) activity, in words” value does the source give for `CN1CCCCC1=NS(=O)(=O)c1cccnc1` [Compound W-14, 1-Methylpiperidylidene-2-(3-pyridyl)sulfonamide] here?
Answer: active analgesics, being comparable to morphine sulfate

Question: What about the “Analgesic action … dose giving 50 % inhibition” value of the same compound?
Answer: 0.00038 mg/kg

Question: What about the “Analgesic action, inhibition action on phenylquinone writhing, % inhibition” value [1] of the same compound?
Answer: 50%

Question: With `CN1CCCCC1=NS(=O)(=O)c1ccccc1` [Compound W-2, 1-Methylpiperidylidene-2-benzenesulfonamide] as the compound, how does the “Analgesic action … dose giving 50 % inhibition” value read?
Answer: 68.0 mg/kg

Question: What about the “Analgesic action, inhibition action on phenylquinone writhing, % inhibition” value [1] of the same compound?
Answer: 50%

Question: Which “Analgesic (agonist) activity, in words” value does the source give for `CN1CCCCC1=NS(=O)(=O)c1ccc([N+](=O)[O-])cc1` [Compound W-6, 1-Methylpiperidylidene-2-(4-nitrophenyl)sulfonamide] here?
Answer: active analgesics, being comparable to morphine sulfate

Question: And the “Analgesic action … dose giving 50 % inhibition” value?
Answer: 0.0028 mg/kg

Question: What about the “Analgesic action, inhibition action on phenylquinone writhing, % inhibition” value [1] of the same compound?
Answer: 50%

Question: Which “Analgesic action … dose giving 50 % inhibition” value does the source give for `CN1CCCCC1=NS(C)(=O)=O` [Compound W-1, 1-Methylpiperidylidene-2-methanesulfonamide] here?
Answer: 108.0 mg/kg

Question: And the “Analgesic action, inhibition action on phenylquinone writhing, % inhibition” value [1]?
Answer: 50%

Question: With `Nc1ccc(CCN2CCCCC2=NS(=O)(=O)c2ccc(Cl)cc2)cc1` [Compound W-19, 1-(4-Aminophenylethyl)piperidylidene-2-(4-chlorophenyl)sulfonamide] as the compound, how does the “Analgesic action, inhibition action on phenylquinone writhing, % inhibition” value [1] read?
Answer: 50%

Question: For `CN1CCCCC1=NS(=O)(=O)c1cccc([N+](=O)[O-])c1` [Compound W-7, 1-Methylpiperidylidene-2-(3-nitrophenyl)sulfonamide], which “Analgesic (agonist) activity, in words” value is on record?
Answer: active analgesics, being comparable to morphine sulfate

Question: What about the “Analgesic action … dose giving 50 % inhibition” value of the same compound?
Answer: 0.0028 mg/kg

Question: What about the “Analgesic action, inhibition action on phenylquinone writhing, % inhibition” value [1] of the same compound?
Answer: 50%

Question: With `CN1CCCCC1=NS(=O)(=O)c1ccc(Cl)cc1` [Compound W-3, 1-Methylpiperidylidene-2-(4-chlorophenyl)sulfonamide] as the compound, how does the “% Inhibn, control (single agent) in antagonist study” value (2.0 mg/kg sc) read?
Answer: 97%

Question: What about the “% Inhibn, control (single agent) in antagonist study” value (5.0 mg/kg sc) of the same compound?
Answer: 100%

Question: And the “Analgesic (agonist) activity, in words” value?
Answer: active analgesics, being comparable to morphine sulfate

Question: What about the “Analgesic action … dose giving 50 % inhibition” value of the same compound?
Answer: 0.0038 mg/kg

Question: And the “Analgesic action, inhibition action on phenylquinone writhing, % inhibition” value [1]?
Answer: 50%

Question: What does the source list for `Cc1ccc(S(=O)(=O)N=C2CCCCN2C)cc1` [Compound W-5, 1-Methylpiperidylidene-2-(4-methylphenyl)sulfonamide]?
Answer: Analgesic action, inhibition action on phenylquinone writhing: dose giving 50 % inhibition: 2.4 mg/kg; Analgesic action, inhibition action on phenylquinone writhing, % inhibition [1]: 50%

Question: For `O=S(=O)(N=C1CCCCN1CC1CCC1)c1cccnc1` [Compound W-25, 1-Cyclobutylmethylpiperidylidene-2-(3-pyridyl)sulfonamide], which “Analgesic action, inhibition action on phenylquinone writhing, % inhibition” value (dose 0.20 mg/kg) is on record?
Answer: 69%

Question: Which “Analgesic action, inhibition action on phenylquinone writhing, % inhibition” value (dose 2.0 mg/kg (Table 3)) does the source give for `Nc1ccc(S(=O)(=O)N=C2CCCCN2CC2CC2)cc1` [Compound W-21, 1-Cyclopropylmethylpiperidylidene-2-(4-aminophenyl)sulfonamide] here?
Answer: 49%

Question: For `O=S(=O)(N=C1CCCCN1CC1CCC1)c1ccc(Cl)cc1` [Compound W-23, 1-Cyclobutylmethylpiperidylidene-2-(4-chlorophenyl)sulfonamide], which “Analgesic action … dose giving 50 % inhibition” value is on record?
Answer: 0.01 mg/kg

Question: What about the “Analgesic action, inhibition action on phenylquinone writhing, % inhibition” value [1] of the same compound?
Answer: 50%

Question: What does the source list for `CN1CCCCC1=NC#N` [Compound W-13, 1-Methylpiperidylidene-2-cyanamide]?
Answer: Analgesic action, inhibition action on phenylquinone writhing: dose giving 50 % inhibition: 6.0 mg/kg; Analgesic action, inhibition action on phenylquinone writhing, % inhibition [1]: 50%

Question: Which results are given for `C/C=C/N1CCCCC1=NS(=O)(=O)c1ccc(Cl)cc1` [Compound W-32, E-1-(1-Propenyl)piperidylidene-2-(4-chlorophenyl)sulfonamide]?
Answer: Analgesic action, inhibition action on phenylquinone writhing: dose giving 50 % inhibition: 0.013 mg/kg; Analgesic action, inhibition action on phenylquinone writhing, % inhibition [1]: 50%

Question: What does the source list for `CC(=O)Oc1ccccc1C(=O)O` [Aspirin (TM), reference compound]?
Answer: Analgesic action, inhibition action on phenylquinone writhing: dose giving 50 % inhibition: 50.0 mg/kg; Analgesic action, inhibition action on phenylquinone writhing, % inhibition [1]: 50%
